The values below come from US4239778A, “Azaprostanoic acid analogs and their use as inhibitors of platelet aggregation” (priority 1978, dated 1980).

Entries after “also recorded” stand apart in the source; their conditions may differ.

For data set [1] the following is noted: in vivo; cited from earlier work.
For data set [2], the target named is T1, prostaglandin synthetase (cyclooxygenase) (Bos taurus, UniProt O62664).
T1 construct: adrenochrome assay with arachidonic acid
T1 sequence (O62664 25-600): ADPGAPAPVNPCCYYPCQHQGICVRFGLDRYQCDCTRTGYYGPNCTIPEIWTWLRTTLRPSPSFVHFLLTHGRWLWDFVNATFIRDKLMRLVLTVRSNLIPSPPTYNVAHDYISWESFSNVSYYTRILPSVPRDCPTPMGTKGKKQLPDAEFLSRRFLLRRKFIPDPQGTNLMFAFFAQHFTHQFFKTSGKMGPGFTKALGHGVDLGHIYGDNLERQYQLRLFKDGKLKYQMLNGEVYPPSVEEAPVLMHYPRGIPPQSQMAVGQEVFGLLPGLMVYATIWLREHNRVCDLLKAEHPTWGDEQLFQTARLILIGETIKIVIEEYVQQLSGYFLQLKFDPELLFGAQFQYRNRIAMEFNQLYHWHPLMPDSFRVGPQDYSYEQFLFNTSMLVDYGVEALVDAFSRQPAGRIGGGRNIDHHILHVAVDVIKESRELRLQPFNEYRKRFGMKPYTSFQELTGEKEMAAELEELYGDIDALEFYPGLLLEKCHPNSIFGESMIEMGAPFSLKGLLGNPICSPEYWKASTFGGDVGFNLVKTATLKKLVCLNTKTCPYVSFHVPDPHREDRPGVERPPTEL
As to the kind of experiment: Inhibition of prostaglandin synthetase (cyclooxygenase): arachidonic acid-dependent formation of adrenochrome from L-epinephrine. The following applies: for inhibition of cyclooxygenase (in words) / inhibition at 500 µM: 5×10^-4 M; for inhibition at 500 µM: read-out: inhibitory activity on cyclooxygenase. It is filed as biochemical, bovine (seminal vesicles). On the procedure: A representative sample of the 13-azaprostanoic acid derivatives, and cis-15-azaprostanoic acid were tested for their effect as inhibitors of prostaglandin synthetase (cyclooxygenase). The basis of the assay is the measurement of the arachidonic acid-dependent formation of adrenochrome from L-peinephrine during prostaglandin biosynthesis [See, generally, the procedure of Takaguchi, et al., Prostaglandins, 2, 169 (1972)].
In order to check the possibility that the compounds might be inhibitors of the cyclooxygenase enzyme, they were tested in a standard prostaglandin biosynthesis assay according to the method of Takagushi, et al., Prostaglandins, 2, 169 (1972). The basis of the assay is the measurement of the arachidonic acid-dependent formation of adrenochrome from L-epinephrine during prostaglandin biosynthesis. Although the assay is an indirect measurement of cyclooxygenase activity, it offers the advantage that total enzyme activity is measured and is not limited to the measurement of any one product of the biotransformation.

The next data set has as its system platelets (human PRP). As to the kind of experiment: Arachidonic acid-induced platelet aggregation (method of Born). It is filed as cell-based. Particulars: for inhibition at 10 µM: Homo sapiens, Platelet, human PRP; for inhibition of arachidonic acid-induced platelet aggregation (in words): 10 μM inhibitor. As to the method: The effect of various azaprostanoic acids of the invention on arachidonic acid-induced platelet aggregation was determined according to the method of Born, Nature, 194, 927 (1962). At a concentration of 10 μM, trans-13-azaprostanoic acid, and cis-15-azaprostanoic acid, inhibit aggregation 100% and 91%, respectively in response to 300 μM arachidonare. Both the cis and trans-13-aza-20-homoprostanoic acid analogs show significant inhibitory activity, 50% and 71%, respectively.
The relative inhibitory activities of the azaprostanoic acids were determined by varying the concentration of arachidonic acid while keeping the inhibitor concentration constant.

The test system of data set [3] is platelets (human platelet rich plasma). Nature of the data set: ADP-induced primary (reversible) platelet aggregation. It is filed as cell-based. Particulars: 100 μM, 2 min. pretreatment; 10 μM ADP. An excerpt: No effect was observed on the ADP-induced primary aggregation of platelets.
In the next data set the test system is platelet rich plasma. Nature of the data set: Platelet aggregation with 500 μM arachidonic acid (Table IV). The class given is cell-based. On the procedure:
(§1) Platelet rich plasma was aggregated with 500 μM arachidonic acid and three minutes following arachidonate addition, aliquots of the plasma were drawn for TXB2 determinations.

For a further data set, the system named is cyclooxygenase. Particulars: cited from earlier work.
The subject of the next data set is thromboxane synthetase. The following applies: cited from earlier work.
The next data set relates to ADP-induced aggregation. Particulars: vs PGE1; cited from earlier work.
Data set [4] deals with aspirin-treated platelets (human PRP). As to the kind of experiment: Aggregation of aspirin-treated platelets by transferred externally generated endoperoxides/thromboxane A2. It is filed as cell-based. As to the method:
The effect of trans-13-azaprostanoic acid on platelet aggregation induced by externally generated endoperoxides and thromboxane A2 was investigated. The endoperoxides and thromboxane A2 were generated by the addition of 500 μM arachidonic acid to 0.75 ml of human platelet-rich plasma (PRP). […] The endoperoxides and thromboxane transferred caused the aspirin-treated platelets to aggregate.
It has been shown that the formation of thromboxanes is closely associated with the initiation of platelet aggregation and occurs rapidly (within 30 sec.) when induced by arachidonic acid. Therefore, the aggregating effect of thromboxane A2 can be studied by first generating the agent in one sample of PRP, and then transferring a portion of this to a second sample of PRP. […] Thus, any aggregation induced by transferred material is due to thromboxane A2 and/or prostaglandin endoperoxides. […] This experiment was repeated several times with identical results.

Data set [5] concerns platelet conversion of AA to thromboxane B2 (TXB2). Nature of the data set: TXB2 formation in platelet rich plasma aggregated with arachidonic acid (radioimmunoassay). It is filed as cell-based. The following applies: AA 500 μM alone. As to the method: as §1
Setting [6] is: 10^-5 M (10 μM) inhibitor, 300 μM arachidonate.
Where [7] appears, read: 10^-5 M inhibitor, 400 μM arachidonate.
Setting [8] is: 10^-5 M inhibitor, 500 μM arachidonate.

Regarding `CCCCC[C@H](O)/C=C/[C@H]1[C@H](O)CC(=O)[C@@H]1CCCCCCC(=O)O` [PGE1], in data set [1], the “biological half-life (in words)” value was “very short biological half-lives”.
With `CCCCCCCN[C@H]1CCC[C@H]1CCCCCCC(=O)O` (relative stereo) [Example 4 cis, cis-13-Azaprostanoic acid], in data set [2], the “inhibition of cyclooxygenase (in words)” value is “did not significantly inhibit”. Besides, the figures for the inhibition at 10 µM in the data set on platelets (human PRP) (setting [6]), in the data set on platelets (human PRP) (setting [7]) and in the data set on platelets (human PRP) (setting [8]) were 43%, 11% and 0%, respectively. Further, the “effect on ADP-induced primary aggregation” value (from here on “effect”) in [3] was “did not alter reversible, primary phase aggregation”.
In the case of `CCCCC[C@H](O)/C=C/[C@H]1C(=O)C[C@H](O)[C@@H]1C/C=C\CCCC(=O)O` [PGD2], the “biological half-life (in words)” value in [1] is reported as “very short biological half-lives”.
On to `COc1ccc2c(c1)c(CC(=O)O)c(C)n2C(=O)c1ccc(Cl)cc1` [indomethacin, reference compound], for which the “inhibition of prostaglandin biosynthesis (in words)” value in data set [2] (indomethacin 2×10^-5 M) is reported as “completely inhibited”. In addition, the inhibition at 20 µM in [2] (read-out: inhibition of enzyme activity) worked out at 100%. Also, the “inhibition of aggregation (in words)” value in the data set on platelet rich plasma (indomethacin 20 μM) is given as “totally blocks aggregation”. Also, in the data set with cyclooxygenase, the “inhibition of prostaglandin biosynthesis / cyclooxygenase (in words)” value is given as “inhibit prostaglandin biosynthesis by blocking the conversion of substrate fatty acids to endoperoxides”.
With `CN(C)CCCOc1nn(Cc2ccccc2)c2ccccc12` [Benzydamine], the “inhibition of thromboxane synthetase (in words)” value in the data set on thromboxane synthetase is on record as “more than twice as effective in inhibiting thromboxane synthetase than in inhibiting prostaglandin biosynthesis (cyclooxygenase)”.
Turning to `O=C(O)CCCCCC[C@@H]1CCC[C@H]1NCc1ccccc1` (relative stereo) [Example 3 trans], in data set [2], the “inhibition of cyclooxygenase (in words)” value is on record as “did not significantly inhibit”. Moreover, in the data set with platelets (human PRP), the “inhibition of arachidonic acid-induced platelet aggregation (in words)” value was “inactive”. For the same compound, the inhibition at 10 µM in the data set on platelets (human PRP) (setting [6]), with platelets (human PRP) (setting [7]) and with platelets (human PRP) (setting [8]) was 0% throughout. Besides, the “effect” value in data set [3] is given as “did not alter reversible, primary phase aggregation”.
For `CCCCCNCC[C@H]1CCC[C@H]1CCCCCCC(=O)O` (relative stereo) [Example 8 cis, 15-Azaprostanoic acid], the inhibition at 10 µM with platelets (human PRP) (setting [6]) turned out to be 91%; with platelets (human PRP) (setting [7]) it was 16%; in the data set on platelets (human PRP) (setting [8]) it was 0%. Moreover, in data set [3], the “effect” value was “did not alter reversible, primary phase aggregation”.
In the case of `CCCCCCN[C@@H]1CCC[C@H]1CCCCCCC(=O)O` (relative stereo) [Example 5 trans, trans-13-aza-20-norprostanoic acid], the “inhibition of cyclooxygenase (in words)” value in data set [2] is on record as “did not significantly inhibit”. Further, the inhibition at 10 µM came to 14% in the data set on platelets (human PRP) (setting [6]), 0% in the data set with platelets (human PRP) (setting [7]) and 0% in the data set on platelets (human PRP) (setting [8]).
With `CCCCCC[C@H](O)/C=C/[C@H]1[C@H](O)CC(=O)[C@@H]1CCCCCCC(=O)O` [Example 20-homo-PGE1, 20-homo-PGE1], the “potency relative to PGE1 as inhibitor of ADP-induced aggregation” value with ADP-induced aggregation is 3.82 times.
As to `CCCCCCCCN[C@H]1CCC[C@H]1CCCCCCC(=O)O` (relative stereo) [Example 6 cis, cis-13-Aza-20-homoprostanoic acid], the inhibition at 500 µM in data set [2] is approximately 30%. Also, the values for the inhibition at 10 µM in the data set with platelets (human PRP) (setting [6]), in the data set on platelets (human PRP) (setting [7]) and with platelets (human PRP) (setting [8]) were 50%, 11% and 0%, respectively.
Regarding `CCCCC/C=C\C/C=C\C/C=C\C/C=C\CCCC(=O)O` [Arachidonic Acid (AA), Arachidonic Acid], the “aggregation of aspirin-treated platelets by arachidonic acid” value in data set [4] (500 μM arachidonic acid, aspirin 0.5 mg/ml) is “did not cause aggregation”. The same compound registered a TXB2 in data set [5] of 1179 ± 37 ng/mL. The “% Aggregation” value in the data set on platelet rich plasma (AA 500 μM alone) amounted to 80%.
Consider `CCCCCCCN[C@@H]1CCC[C@@H]1CCCCCCC(=O)O` (relative stereo) [cis-13-aza], for which, in the data set with platelets (human PRP), the “inhibition of arachidonic acid-induced platelet aggregation (in words)” value was “inactive”.
For `CCCCCCCCN[C@@H]1CCC[C@H]1CCCCCCC(=O)O` (relative stereo) [Example 6 trans, trans-13-aza-20-homoprostanoic acid], the inhibition at 500 µM in data set [2] was approximately 30%. Further, the inhibition at 10 µM stood at 71% in the data set with platelets (human PRP) (setting [6]), 7% in the data set with platelets (human PRP) (setting [7]) and 0% in the data set with platelets (human PRP) (setting [8]).
For the compound `CCCCCCCN[C@@H]1CCC[C@H]1CCCCCCC(=O)O` (relative stereo) [Example 4 trans, trans-13-azaprostanoic acid], the “inhibition of cyclooxygenase (in words)” value in data set [2] is “did not significantly inhibit”. Also, the inhibition at 10 µM in the data set with platelets (human PRP) (setting [6]) was found to be 100%; in the data set on platelets (human PRP) (setting [7]) it was 66%; in the data set with platelets (human PRP) (setting [8]), 19%. The “inhibition of platelet aggregation (in words)” value in the data set on platelets (human PRP) (summary of screening) is given as “potent inhibitors of platelet aggregation”. For the same compound, in data set [3], the “effect” value is listed as “did not alter reversible, primary phase aggregation”. The “aggregation induced by transferred thromboxane A2/endoperoxide mixture” value in data set [4] (100 μM pre-incubation, aspirin-treated platelets) is on record as “totally inhibited; also recorded: no aggregation was observed”.
As to `CCCC[C@H](O)/C=C/[C@H]1[C@H](O)CC(=O)[C@@H]1CCCCCCC(=O)O` [Example 20-nor-PGE1, 20-nor-PGE1], the “potency relative to PGE1 as inhibitor of ADP-induced aggregation (in words)” value in the data set with ADP-induced aggregation is given as “only half as potent as PGE1”.
